Key:
Assay in all cases: relative viability (nuclei count vs DMSO), 5 days (fraction); higher = more cells survive
[1] = test system: NCI-H2228
Outline: (§1)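 Lung cancer cell lines in 1536-well plates got either a single drug or a fixed anchor-drug dose together with five library-drug doses (not always all listed) in √10 steps, by pin tool, on the day after seeding. Nuclei were counted after 5 days, and relative viability is the treated-to-vehicle ratio of nuclei counts. Values are medians of duplicate plates.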

[2] = test system: SK-LU-1
Outline: as §1

[3] = test system: NCI-H647
Outline: as §1

[4] = test system: NCI-H1355
Outline: as §1

[5] = test system: LOU-NH91
Outline: as §1

[6] = test system: HARA
Outline: as §1

[7] = test system: NCI-H2170
Outline: as §1

[8] = test system: NCI-H1792
Outline: as §1

[9] = test system: NCI-H1437
Outline: as §1

[10] = test system: BEN
Outline: as §1

[11] = test system: NCI-H2009
Outline: as §1

[12] = test system: NCI-H2405
Outline: as §1

[13] = test system: LC-2-ad
Outline: as §1

[14] = test system: EKVX
Outline: as §1

[15] = test system: NCI-H2087
Outline: as §1

[16] = test system: NCI-H1734
Outline: as §1

[17] = test system: NCI-H2342
Outline: as §1

[18] = test system: SK-MES-1
Outline: as §1

[19] = test system: HCC-366
Outline: as §1

[20] = test system: HCC-827
Outline: as §1

[21] = test system: NCI-H1395
Outline: as §1

[22] = test system: NCI-H596
Outline: as §1

[23] = test system: NCI-H661
Outline: as §1

## CC1(C)CCC(c2ccc(Cl)cc2)=C(CN2CCN(c3ccc(C(=O)NS(=O)(=O)c4ccc(N[C@H](CCN5CCOCC5)CSc5ccccc5)c(S(=O)(=O)C(F)(F)F)c4)cc3)CC2)C1 [Navitoclax] + O=C(c1cc(Cc2n[nH]c(=O)c3ccccc23)ccc1F)N1CCN(C(=O)C2CC2)CC1 [Olaparib] (partner 8 µM)
[1]; first compound 0.005 µM
  relative viability: 0.941
[1]; first compound 0.01581 µM
  relative viability: 0.754
[1]; first compound 0.1581 µM
  relative viability: 0.758
[1]; first compound 0.5 µM
  relative viability: 0.638
[2]; first compound 0.005 µM
  relative viability: 0.613
[2]; first compound 0.01581 µM
  relative viability: 0.474
[2]; first compound 0.05 µM
  relative viability: 0.329
[2]; first compound 0.1581 µM
  relative viability: 0.424
[2]; first compound 0.5 µM
  relative viability: 0.338
[3]; first compound 0.005 µM
  relative viability: 0.47
[3]; first compound 0.01581 µM
  relative viability: 0.605
[3]; first compound 0.05 µM
  relative viability: 0.498
[3]; first compound 0.1581 µM
  relative viability: 0.471
[3]; first compound 0.5 µM
  relative viability: 0.288
[4]; first compound 0.005 µM
  relative viability: 0.74
[4]; first compound 0.01581 µM
  relative viability: 0.731
[4]; first compound 0.05 µM
  relative viability: 0.734
[4]; first compound 0.1581 µM
  relative viability: 0.694
[4]; first compound 0.5 µM
  relative viability: 0.806
[5]; first compound 0.005 µM
  relative viability: 0.909
[5]; first compound 0.01581 µM
  relative viability: 0.928
[5]; first compound 0.05 µM
  relative viability: 0.697
[5]; first compound 0.1581 µM
  relative viability: 0.658
[5]; first compound 0.5 µM
  relative viability: 0.37
[6]; first compound 0.005 µM
  relative viability: 0.763
[6]; first compound 0.01581 µM
  relative viability: 0.752
[6]; first compound 0.05 µM
  relative viability: 0.579
[6]; first compound 0.1581 µM
  relative viability: 0.789
[6]; first compound 0.5 µM
  relative viability: 0.875
[7]; first compound 0.005 µM
  relative viability: 0.574
[7]; first compound 0.01581 µM
  relative viability: 0.62
[7]; first compound 0.05 µM
  relative viability: 0.53
[7]; first compound 0.1581 µM
  relative viability: 0.58
[7]; first compound 0.5 µM
  relative viability: 0.56
[8]; first compound 0.005 µM
  relative viability: 0.408
[8]; first compound 0.01581 µM
  relative viability: 0.662
[8]; first compound 0.1581 µM
  relative viability: 0.386
[8]; first compound 0.5 µM
  relative viability: 0.326
[9]; first compound 0.005 µM
  relative viability: 0.619
[9]; first compound 0.01581 µM
  relative viability: 0.659
[9]; first compound 0.05 µM
  relative viability: 0.655
[9]; first compound 0.1581 µM
  relative viability: 0.629
[9]; first compound 0.5 µM
  relative viability: 0.656
[10]; first compound 0.005 µM
  relative viability: 1.07
[10]; first compound 0.01581 µM
  relative viability: 1.06
[10]; first compound 0.05 µM
  relative viability: 0.862
[10]; first compound 0.1581 µM
  relative viability: 1.05
[10]; first compound 0.5 µM
  relative viability: 0.595
[11]; first compound 0.005 µM
  relative viability: 0.698
[11]; first compound 0.01581 µM
  relative viability: 0.692
[11]; first compound 0.05 µM
  relative viability: 0.691
[11]; first compound 0.1581 µM
  relative viability: 0.6
[11]; first compound 0.5 µM
  relative viability: 0.689
[12]; first compound 0.005 µM
  relative viability: 0.803
[12]; first compound 0.01581 µM
  relative viability: 0.881
[12]; first compound 0.05 µM
  relative viability: 0.953
[12]; first compound 0.1581 µM
  relative viability: 0.801
[12]; first compound 0.5 µM
  relative viability: 0.739
[13]; first compound 0.005 µM
  relative viability: 0.729
[13]; first compound 0.01581 µM
  relative viability: 0.744
[13]; first compound 0.05 µM
  relative viability: 0.654
[13]; first compound 0.1581 µM
  relative viability: 0.698
[13]; first compound 0.5 µM
  relative viability: 0.701
[14]; first compound 0.005 µM
  relative viability: 0.887
[14]; first compound 0.01581 µM
  relative viability: 0.994
[14]; first compound 0.05 µM
  relative viability: 0.784
[14]; first compound 0.1581 µM
  relative viability: 0.891
[14]; first compound 0.5 µM
  relative viability: 0.885
[15]; first compound 0.005 µM
  relative viability: 0.69
[15]; first compound 0.01581 µM
  relative viability: 0.632
[15]; first compound 0.1581 µM
  relative viability: 0.638
[15]; first compound 0.5 µM
  relative viability: 0.598
[16]; first compound 0.005 µM
  relative viability: 0.626
[16]; first compound 0.01581 µM
  relative viability: 0.67
[16]; first compound 0.1581 µM
  relative viability: 0.534
[16]; first compound 0.5 µM
  relative viability: 0.535
[17]; first compound 0.005 µM
  relative viability: 0.421
[17]; first compound 0.01581 µM
  relative viability: 0.44
[17]; first compound 0.05 µM
  relative viability: 0.322
[17]; first compound 0.1581 µM
  relative viability: 0.476
[17]; first compound 0.5 µM
  relative viability: 0.456
[18]; first compound 0.005 µM
  relative viability: 0.648
[18]; first compound 0.01581 µM
  relative viability: 0.677
[18]; first compound 0.05 µM
  relative viability: 0.775
[18]; first compound 0.1581 µM
  relative viability: 0.636
[18]; first compound 0.5 µM
  relative viability: 0.814
[19]; first compound 0.005 µM
  relative viability: 0.362
[19]; first compound 0.01581 µM
  relative viability: 0.43
[19]; first compound 0.1581 µM
  relative viability: 0.404
[19]; first compound 0.5 µM
  relative viability: 0.399
[20]; first compound 0.005 µM
  relative viability: 0.714
[20]; first compound 0.01581 µM
  relative viability: 0.669
[20]; first compound 0.05 µM
  relative viability: 0.531
[20]; first compound 0.1581 µM
  relative viability: 0.638
[20]; first compound 0.5 µM
  relative viability: 0.632
[21]; first compound 0.005 µM
  relative viability: 0.456
[21]; first compound 0.01581 µM
  relative viability: 0.495
[21]; first compound 0.05 µM
  relative viability: 0.441
[21]; first compound 0.1581 µM
  relative viability: 0.428
[21]; first compound 0.5 µM
  relative viability: 0.473
[22]; first compound 0.005 µM
  relative viability: 0.663
[22]; first compound 0.01581 µM
  relative viability: 0.758
[22]; first compound 0.05 µM
  relative viability: 0.533
[22]; first compound 0.1581 µM
  relative viability: 0.598
[22]; first compound 0.5 µM
  relative viability: 0.626
[23]; first compound 0.005 µM
  relative viability: 0.751
[23]; first compound 0.01581 µM
  relative viability: 0.797
[23]; first compound 0.05 µM
  relative viability: 0.712
[23]; first compound 0.1581 µM
  relative viability: 0.695
[23]; first compound 0.5 µM
  relative viability: 0.751

Source: the supplement of paper PMC10307832
